Measured values taken from US6121463A, “Alkyl-4-silylheterocyclic phenols and thiophenols useful as antioxidant agents” (priority 1998, dated 2000).

Columns and labels:
[1] = Serum clinical chemistries in male Sprague-Dawley rats after dietary admixture; type: in vivo, Sprague-Dawley rat; conditions: 0.3% diet, 4 days, N=5
Description: (§1) A typical experiment consists of 4-6 groups of rats (N=5 per group) with 1 group being a control which receives no MDL compound and the other groups being treated with 0.3% MDL compound. Some of the compounds are either repeated at 0.3% or evaluated again at the lower dose of 0.1%. House Male Sprague-Dawley rats, 50-100 g, (Harlan Laboratories, Indianapolis, Ind.) in groups of 5, feeding ad libitum water and Purina Rodent chow (#5002) with or without MDL compound as a dietary admixture for 4 days. Make dietary admixtures (0.3%) by mixing 1.2 grams of an MDL compound with 400 grams of Purina rodent chow (#5002). Mix the MDL compound with approximately 50 grams of food using a mortar and pestle. This is added to the remainder of the food and mixed for 3 hours on a rotary mixer. In the morning of day 5, anesthetize non-fasted rats with carbon dioxide, and collect blood by cardiac puncture. Sacrifice rats by cervical dislocation. Record body weights and liver weights in grams. Record food consumption as grams.cndot.day^-1 .cndot.rat^-1. Deaths are recorded as mortality. Use aliquots of fresh serum for clinical chemistries, thiobarbituric acid reactive substances (TBARS) and conjugated diene measurements. Freeze aliquots of serum (~0.5mL) and whole livers at -20° C. for compound and metabolite concentration determination at a later time.
Allow blood to clot at room temperature for 30 minutes. Obtain serum after centrifugation for 10 min at 4° C. at 3000 rpm in a Beckman J-6M/E centrifuge with a JS-4.2 rotor. Analyze fresh serum by a COBAS MIRA S autoanalyzer (Roche Diagnostics) using Roche diagnostic reagents for the following clinical chemistry measurements: alkaline phosphatase (ALP, kit #44553), alanine transaminase (ALT, kit #42375), aspartate aminotransferase (AST, kit #42381), total cholesterol (CHOL, kit #44334), triglyceride (TG, kit #44120), and glucose (GLU, kit #44558). Calculate ALP, ALT, and AST as units/L. Calculate cholesterol, triglycerides, and glucose as mg/dL.

[2] = system: oxidation of serum lipids; assay: Thiobarbituric acid reactive substances (TBARS) assay in serum of treated rats; type: in vivo, Sprague-Dawley rat; conditions: 0.3% diet, 4 days, male rats, N=5; CuSO4 oxidation of serum, 37° C., 3 hr
Description: as §1, with “Sacrifice rats by cervical dislocation. Record body weights and liver weights in grams. Record food consumption as grams.cndot.day^-1 .cndot.rat^-1.” left out, “Use aliquots of fresh serum for clinical chemistries, thiobarbituric acid reactive substances (TBARS) and conjugated diene measurements. Freeze aliquots of serum (~0.5mL) and whole livers at -20° C. for compound and metabolite concentration determination at a later time.” left out
In this assay the oxidation of serum lipids is initiated with CuSO4, resulting in the formation of aldehydes, such as malondialdehyde (MDA). Upon incubation with thiobarbituric acid, the absorbance of the aldehydes can be detected at 530-540 nm. […] Measure absorbances at 540 nm using a Biotek model EL311 microplate reader. The nmoles of MDA produced are calculated from a standard curve of 0 to 10 nmoles of MDA prepared from malonaldehyde bis(dimethylacetal). […]

[3] = Animal parameters in male Sprague-Dawley rats; type: in vivo, Sprague-Dawley rat; conditions: 0.3% diet, 4 days; for body wt. as a percent of control / food (grams eaten per day per rat) as a percent of control / lw/bw (liver weight/body weight) as a percent of control: N=5; for mortality at 96 h: rat, in vivo, po, N=5, read-out: mortality (deaths per group)
Description: as §1

[4] = system: oxidation of lipids; assay: Conjugated diene determination (lag phase) in pooled serum of treated rats; type: in vivo, Sprague-Dawley rat; conditions: 0.3% diet, 4 days; mean of 2 determinations of pooled samples, N=5; control = 61 min.
Description: as §1, with “Use aliquots of fresh serum for clinical chemistries, thiobarbituric acid reactive substances (TBARS) and conjugated diene measurements. Freeze aliquots of serum (~0.5mL) and whole livers at -20° C. for compound and metabolite concentration determination at a later time.” left out
Conjugated diene lag phase is another indicator of the oxidation of lipids. […] Measure the absorbances of all cuvettes and set the instrument baseline to zero using the lowest absorbing sample. […] Record the absorbance of each cuvette at 2 min intervals for a period of 840 min. […]

[5] = system: ICAM-1; conditions: vascular endothelial cells; Mauri, N. et al.; cited from earlier work

Compound	ALP (alkaline phosphatase) as a percent of control [1] [%]	ALT (alanine aminotransferase) as a percent of control [1] [%]	AST (aspartate aminotransferase) as a percent of control [1] [%]	CHOL (total cholesterol) as a percent of control [1] [%]	GLUC (glucose) as a percent of control [1] [%]	TRIG (triglycerides) as a percent of control [1] [%]	TBARS (thiobarbituric acid reactive substances) as a percent of control [2] [%]	body wt. as a percent of control [3] [%]	food (grams eaten per day per rat) as a percent of control [3] [%]	lw/bw (liver weight/body weight) as a percent of control [3] [%]	mortality at 96 h [3] [%]	CONJ. DIENE (conjugated diene lag phase) [4] [min]	inhibition of cytokine-induced expression of ICAM-1 [5]
CC(C)(C)c1cc(OC[Si](C)(C)c2ccco2)cc(C(C)(C)C)c1O [106,939]	123	92	106	120	83	108	64	92	88	130	0		
CC(C)(C)c1cc(OC[Si](C)(C)c2cccs2)cc(C(C)(C)C)c1O [107,965]	137	96	89	121	86	90	57	84	84	118	0	273	
CC(=O)N[C@@H](CS)C(=O)O [N-acetylcysteine]													but not ICAM-1
S=C(S)N1CCCC1 [pyrollidine dithiocarbamate]													but not ICAM-1
